# Test results from patent US5279956A, “Activated protein C polypeptides and anti-peptide antibodies, diagnostic methods and systems for inhibiting activated protein C” (The Scripps Research Institute, priority 1991, dated 1994).
# pIC50: −log10 of the molar value. No end group written: not given here.
# Legend:
# anti-(390-404) antibody [1] = assay: Solid-phase ELISA: binding of anti-(390-404) antibody to immobilized peptides and PC; set-up: species or system rabbit
# Experimental: To determine the immunospecificity of the rabbit antisera obtained in Example 2b, ELISA assays were performed. Briefly, 50 μl of either 50 μM peptide-(390-404) prepared in Example 1 or 10 μg/ml of PC or APC prepared in Example 2c in a buffer consisting of 0.05M sodium carbonate (Na2 CO3) and 0.02% NaN3 at pH 9.0 were admixed into the wells of microtiter plates. The plates were maintained at 37° C. for one hour to permit the antigens to become operatively affixed to the well walls. After washing the antigen-coated wells with TBS, the wells were blocked with 250 μl/well of 10% bovine serum albumin (BSA) (Sigma) in TBS for one hour at 22° C. The blocking solution was then removed and the wells were subsequently washed five times with 250 μl/well of maintenance buffer (0.05M Tris-HCl, 0.1M NaCl, 0.02% NaN3, 1 mg/ml BSA, 5 mM CaCl2, 0.01% Tween 20 at pH 7.4). Fifty μl of rabbit non-immune or specific antiserum serially diluted in maintenance buffer was then admixed to the washed wells and maintained for one hour at 37° C. to allow formation of a solid liquid phase immunoreaction products. The wells were then washed three times with maintenance buffer followed by admixture of 50 μl of 2.0 μg/ml of secondary antibody (polyclonal biotinylated goat-anti-rabbit-IgG) (Pierce Biochemicals) diluted in maintenance buffer to each well for the detection of immunoreactant products. The plates were maintained for 1 hour at 37° C. after which time the secondary antibody solution was removed. After washing the wells as described above, 50 μl of 2.0 μg/ml streptavidin-alkaline-phosphatase (Pierce Biochemicals) in maintenance buffer was admixed into each well and maintained for 30 minutes at 37° C. Detection of specific immunoreaction products was obtained by admixture of 150 μl/well of 5 mg/ml p-nitrophenylphosphate (PNPP) (Pierce Biochemicals) in 0.1M diethanolamine and 0.02% NaN3 at pH 9.6 followed by measurement of the change in absorbance at 405 nm over time using the EL312 Microplate Bio-Kinetics Reader and the KinetiCalc Software Program (Biotek Instruments, Inc., Vt.). Non-specific binding was considered as the measured absorbance in 10% BSA blocked wells which served as negative controls without the preceding coating of a specific protein or peptide. Under the described conditions, non-specific binding never exceeded more than 5% of the specific binding.
# The specificity of immunoaffinity purified anti-(390-404) antibody towards peptide-(390-404) and PC was evaluated by measuring the binding in solid-phase ELISA of the antibody to immobilized peptides including -(384-398), -(390-404), -(396-410), -(404-390), and -K395A-(390-404) listed in Table 1 with their corresponding SEQ ID NO, and to PC. […]
# anti-(390-404) antibody [2] = assay: Cross-competition ELISA: anti-(390-404) antibody binding to immobilized PC with fluid-phase competitors; set-up: species or system rabbit; settings: fluid-phase competitor
# Experimental: FIG. 1 illustrates anti-(390-404) antibody binding to immobilized Protein C (PC) in the presence of fluid-phase PC, peptide-(390-404), -(404-390) and -K395A-(390-404). […] Before admixing 2 μg/ml anti-(390-404) antibody to PC-coated wells, the anti-(390-404) antibody was admixed with 0 to 200 μg/ml of either PC, 0 to 1000 μM peptide (-390-404), 0 to 1000 μM peptide-(404-390), or 0-200 μM peptide-K395A-(390-404) for 30 minutes at 37° C. Following biotinylated-goat-anti-rabbit-IgG and streptavidin-alkaline-phosphatase immunoreactions as described in Example 2c, bound anti-(390-404) antibody was detected by addition of 5 milligrams/milliliter (mg/ml) p-nitrophenylphosphate in 0.1M diethanolamine at pH 9.6 followed by measuring of the change in absorbance at 405 nm over time. The amount of anti-(390-404) specifically bound to PC coated wells in the absence of any competing protein was defined as 100%. […]
# The specificity of anti-(390-404) antibody for peptide-(390-404) and PC was confirmed by cross-competition binding experiments. […] Bound anti-(390-404) antibody to immobilized PC in the presence of competitors was detected as described in Example 2c.
# [3] = Solubility of peptide in buffer solutions; format: physicochemical; settings: concentrations higher than 36 μM
# Experimental: Purified peptides were separately resuspended in distilled water to form a dissolved peptide solution at a final concentration of 2.5 mM. Subsequently, […] containing 0.05M Tris hydroxymethyl aminomethanehydrochloride (Tris-HCl) at pH 7.4 (TBS-Az) 0.1M sodium chloride (NaCl), 0.02% sodium azide (NaN3). The pH of the solution was checked, and if necessary, adjusted to pH 7.4 with titrated amounts of 1M Tris-base. For peptides that appeared to be not completely soluble at 2.5 mM in TBS-Az, the partially dissolved peptide suspensions separately were centrifuged at 13,000×g to pellet the insoluble material. The molar concentrations in the resultant individual supernatants were estimated from the absorbance at 280 nm and 257 nm, respectively, for peptide solutions containing aromatic amino acids using a molar extinction coefficient of 5,600 M^-1 cm^-1 for tryptophan and 1,400 M^-1 cm^-1 for tyrosine at 280 nm, using a molar extinction coefficient of 200 M^-1 cm^-1 for phenylalanine at 257 nm. Peptides without aromatic amino acids and poor solubility in aqueous solutions were not evaluated in this invention.
# APC = biological target: T1, APC (Homo sapiens, UniProt P04070); assay: APC anticoagulant activity, APTT and Xa-1-stage coagulation assays (mean or both); format: biochemical; settings: measured at 36 μM peptide
# T1 construct: begins at amino acid residue position 158 and ends at 419; The light chain is 155 amino acid residues in length; tissue Factor IX concentrate from Immuno AG, Vienna; thrombin from Enzyme Research Laboratories
# T1 sequence (P04070 212-461): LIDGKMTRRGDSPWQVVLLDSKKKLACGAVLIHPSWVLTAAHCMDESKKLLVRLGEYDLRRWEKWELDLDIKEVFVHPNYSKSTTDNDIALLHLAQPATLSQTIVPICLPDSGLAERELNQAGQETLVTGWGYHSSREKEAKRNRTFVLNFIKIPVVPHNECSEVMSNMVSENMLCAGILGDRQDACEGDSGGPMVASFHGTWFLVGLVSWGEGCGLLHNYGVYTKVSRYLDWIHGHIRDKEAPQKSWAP
# T1 sequence (P04070 43-197): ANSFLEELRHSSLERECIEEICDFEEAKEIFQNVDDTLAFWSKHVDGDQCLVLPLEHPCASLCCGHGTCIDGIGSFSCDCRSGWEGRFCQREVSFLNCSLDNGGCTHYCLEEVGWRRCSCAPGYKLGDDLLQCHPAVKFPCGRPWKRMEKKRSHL
# Experimental: The effect of the synthetic peptides on APC anticoagulant activity were determined using the APTT assay in the presence of either normal citrate anticoagulated plasma (NHP) or protein S depleted plasma (PSDP). The assays were performed essentially as described. See Marlar et al., Blood, 59:1067-1072 […]; Suzuki et al., J. Biol. Chem., 258:163-168 (1983); Gruber et al., Blood, 73:639-642 (1989); Ohlin et al., Biochem., 29:644-651 (1990). NHP was purchased from George King Bio-Medical, Inc. (Overland Park, Kans.). PSDP was prepared from a normal human citrate-anticoagulated plasma pool from ten healthy donors. Protein S was immunodepleted from the NHP by immunoaffinity chromatography of NHP over an anti-protein S antibody column to form PSDP. The anti-protein S antibody column was prepared by coupling 100 mg of a monoclonal, high-affinity, calcium-independent anti-PS antibody, designated S7, to 30 ml of CNBr-activated Sepharose 4B (Pharmacia) as described in Example 2c1).
# For the APTT assay, APC was prepared as described in Example 2c2). […] The concentration of the APC used in the assay was initially optimized with respect to the sensitivity of the assay towards APC-induced prolongation of clotting time compared to clotting time without APC.
# Once the optimal concentration of APC was determined, peptides from Table 2 were then separately admixed for a final concentration of 500 μM with 10 nM APC in 100 μl of TBS-BSA at pH 7.4 to form peptide-APC admixtures. The resulting admixtures were maintained for seven minutes at 37° C. Separate aliquots of peptides maintained under the same conditions in the absence of APC served as controls for the inhibitory effect of synthetic peptides on APC anticoagulant activity. After the maintenance period, 100 μl of NHP and 100 μl APTT-reagent Thrombosil (Ortho Diagnostics, Raritan, N.J.) were admixed into each peptide admixture and maintained for 200 seconds at 37° C. to form a pre-coagulation admixture. In some experiments, PSDP was used in the place of NHP to determine the effect of Protein S on the assay system. Coagulation was then initiated by the admixture of 100 μl of 30 mM CaCl2 in TBS prewarmed to 37° C. to each of the pre-coagulation admixtures. The time for clot formation was measured by an Electra 700 Automatic Coagulation Timer (Medical Laboratory Automation, Inc., Mount Vernon, N.Y.). Each peptide's effect was determined in duplicate.
# The synthetic peptides listed in Table 4 are presented in the same order as listed in Table 2, i.e., are reproduced from Table 2. […] For peptides at a concentration of 500 μM that inhibited at least 50% of APC anticoagulant activity, analysis of dose-response was subsequently conducted. The column in Table 4 labeled "Inhibition of APC" represents the inhibition of APC anticoagulant activity measured with 500 μM peptide.
# For testing the inhibition of the synthetic peptides on APC activity described above, Xa-1-stage coagulation assays were also performed as described. See Seegers et al., Thrombosis Res., 13:233-243 (1978); Marlar et al., supra; and Walker et al., J. Biol. Chem. 265:1484-1489 (1990).
binding of anti-(390-404) antibody to immobilized peptide or PC (anti-(390-404) antibody [1]; solid-phase ELISA),"Anti-(390-404) (Absorbance/20 min.) (anti-(390-404) antibody [1]; wells coated with 50 μM peptide or 10 μg/ml PC, 2 μg/ml anti-(390-404) antibody, mean of duplicates)",competition with binding of anti-(390-404) antibody to immobilized PC (anti-(390-404) antibody [2]),"pIC50 (anti-(390-404) antibody [2]; 2 μg/ml antibody, 10 μg/ml PC coated, read-out: Half-maximal inhibition of anti-(390-404) antibody binding to immobilized PC)",inhibition at 36 µM (APC),Substance,solubility in buffer solutions [3]
Significant immunoreactivity,249 Absorbance/20 min.,competed significantly,~8.04,,Protein C: human Protein C zymogen immunoaffinity-purified from plasma factor IX concentrate,
,,,,23%,"YGVYTAVSRYLDWIH-NH2 [peptide-K395A-(390-404), YGVYTAVSRYLDWIH]",limitations of solubility in buffer solutions
